# “And” between values parts separate entries of the source, which are not always exact repeats. Equal values may be shown once. Read-outs that look alike come from different tables or passages of the source.
# How the values were obtained:
# [1] = biological target: photolabile unchained HLA-A*11:01 pMHC-I protein (Homo sapiens, UniProt P04439, A114D/D185E/E176A/F33Y/L180Q/S129P/T187R); test: ELISA with photolabile unchained pMHC-I protein and UV irradiation; assay type: binding
# [2] = system: HLA-A*11:01 single chain protein; assay type: biochemical, Human; set-up: EZ50kDa / EZ50kD (pH 6.2) / EZ50kD (pH 8) / EZ50kD (normalised: EBV1101 = 1, EBV0201 = 0) / EZ50kDa rank: unit not given beside the values;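 on EZ50kD (pH 6.2): scaled with positive control peptide as 1 and negative control peptide as 0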;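 on EZ50kDa: intact 50 kDa band volume scaled with positive control peptide as 1 and negative as 0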
# [3] = EASY MHC-I A*11:01, 2019-07-26, mean of the 2 replicates
# [4] = EASY MHC-I A*11:01, run 2019-08-06, 5min, mean of 2 replicates
# [5] = EASY MHC-I A*11:01, run 2019-08-08, 5min, mean of 2 replicates
# [6] = EASY MHC-I A*11:01, gel 2019-07-17 lr1028-1036 5min, mean of 2 replicates
# [7] = EASY MHC-I A*11:01, gel 2019-07-17 lr1028-1036 5min, replicate 1 (lanes 1-14)
# [8] = EASY MHC-I A*11:01, gel 2019-07-17 lr1028-1036 5min, replicate 2 (lanes 15-28)
# [9] = EASY MHC-I A*11:01, gel 2019-07-24 lr1046_ex1004 5min, replicate 1 (lanes 1-14)
# [10] = EASY MHC-I A*11:01, gel 2019-07-24 lr1046_ex1004 5min, replicate 2 (lanes 15-28)
# [11] = EASY MHC-I A*11:01, 2019-08-01, mean of the 2 replicates
# [12] = EASY MHC-I A*11:01, 2019-07-25, mean of the 2 replicates
# [13] = Table 2, 62.5 nM photolabile pMHC-I mixture, 5 μM peptide in PBS, UV 365 nm 2 × 5 min on ice, 2 h room temperature on anti-β2m plate, Abs450nm − Abs570nm, instability cutoff < 0.6
# [14] = Table 2, pH 6.2, 37 °C, enterokinase, Eq. (4), instability cutoff < 0.3
sequence,measurement,setting,value
KTSPKANKEI [EX1014],EASY_mean,"[1]; […], mean, STDEV",-0.002118
same,EZ_mean,[2]; [3],-0.1022
IKTSPKAN [EX1002],EASY_mean,[1],-0.005748
same,EZ_mean,[2],-0.02894
TVQLIMQL [TM1003],EASY_mean,"[1]; […], mean, STDEV",-0.03257
same,EZ_mean,[2]; [4],-0.09825
TSTVQLIMQL [TM1020],EASY_mean,"[1]; […], mean, STDEV",-0.02933
same,EZ_mean,[2]; [5],-0.0424
same,Norm_mean,[2]; [5],-0.03086
ITDFGRAKLLG [LR1033],EASY_mean,[1],-0.04357
same,EZ_mean,[2]; [6],-0.04472
same,"EZ50kD (normalised: EBV1101 = 1, EBV0201 = 0)",[2]; [7],-0.05531
same,"Norm (50 kDa band adj. volume normalised: Undig_37C = 1, Dig_37C = 0)",[2]; [7],-0.05765
same,"EZ50kD (normalised: EBV1101 = 1, EBV0201 = 0)",[2]; [8],-0.03414
same,"Norm (50 kDa band adj. volume normalised: Undig_37C = 1, Dig_37C = 0)",[2]; [8],-0.02949
RSFKDLLKK [reference compound],ELISA450nm,[1],1.682
same,EZ50kD (pH 6.2),[2]; pH 6.2,0.6092
FGRAKLLGAEEK [LR1048],EASY_mean,[1],-0.01082
same,EZ_mean,[2],-0.03879
DFGRAKLL [LR1005],EASY_mean,"[1]; ELISA signal, mean, […]",-0.01718
same,EZ_mean,[2],-0.05649
TDFGRAKLLGAE [LR1046],EASY_mean,[1],-0.01889
same,EZ_mean,"[2]; EASY MHC-I A*11:01, gel 2019-07-24 lr1046_ex1004 5min, mean of 2 replicates",-0.05291
same,"EZ50kD (normalised: EBV1101 = 1, EBV0201 = 0)",[2]; [9],-0.04519
same,"Norm (50 kDa band adj. volume normalised: Undig_37C = 1, Dig_37C = 0)",[2]; [9],-0.03888
same,"EZ50kD (normalised: EBV1101 = 1, EBV0201 = 0)",[2]; [10],-0.06064
same,"Norm (50 kDa band adj. volume normalised: Undig_37C = 1, Dig_37C = 0)",[2]; [10],0.001098
LIMQLMPFG [TM1015],EASY_mean,"[1]; […], mean, STDEV",-0.03975
same,EZ_mean,"[2]; EASY MHC-I A*11:01, run 2019-08-07, 5min, mean of 2 replicates",-0.1155
RAKLLGAEE [LR1017],EASY_mean,"[1]; […], mean, STDEV",-0.0266
same,EZ_mean,[2],-0.04971
VQLIMQLM [TM1004],EASY_mean,"[1]; […], mean, STDEV",-0.05004
same,EZ_mean,[2]; [4],-0.1305
TDFGRAKLLGA [LR1034],EASY_mean,[1],-0.04602
same,EZ_mean,[2]; [6],-0.04886
same,"EZ50kD (normalised: EBV1101 = 1, EBV0201 = 0)",[2]; [7],-0.06534
same,"Norm (50 kDa band adj. volume normalised: Undig_37C = 1, Dig_37C = 0)",[2]; [7],-0.06378
same,"EZ50kD (normalised: EBV1101 = 1, EBV0201 = 0)",[2]; [8],-0.03237
same,"Norm (50 kDa band adj. volume normalised: Undig_37C = 1, Dig_37C = 0)",[2]; [8],-0.02825
ITQLMPFGSLLD [CS1042],EASY_mean,[1],-0.01907
same,EZ_mean,[2],-0.03951
ICLTSTVQLIMQ [TM1039],EASY_mean,"[1]; ELISA signal, mean, […]",-0.09515
same,EZ_mean,[2],-0.1704
TDFGRAKL [LR1004],EASY_mean,"[1]; […], mean, STDEV",-0.01664
same,EZ_mean,[2],-0.05517
AIKTSPKANKEI [EX1027],EASY_mean,[1],-0.02114
same,EZ_mean,[2]; [11],-0.13
KITDFGRAKLLG [LR1044],EASY_mean,[1],0.1191
same,"EZ50kD (normalised: EBV1101 = 1, EBV0201 = 0)",[2],0.1471 and 0.1891
same,EZ_mean,[2],0.1681
same,"Norm (50 kDa band adj. volume normalised: Undig_37C = 1, Dig_37C = 0)",[2],0.1017 and 0.1364
same,EZ50kDa,"[2]; Table 3, EGFR peptide library (n = 177, duplicated), pH 6.2, 37 °C, 14 h, enterokinase, Eq. (4)",0.2 and 0.168 ± 0.030
VQLIMQLMPF [TM1023],EASY_mean,"[1]; […], mean, STDEV",-0.02163
same,EZ_mean,[2]; [5],-0.03531
same,Norm_mean,[2]; [5],-0.02177
AIKTSPKAN [EX1006],EASY_mean,"[1]; […], mean, STDEV",0.003202
same,EZ_mean,[2]; [12],-0.02264
LTSTVQLIMQLM [TM1041],EASY_mean,"[1]; […], mean, STDEV",-0.04948
same,EZ_mean,[2],-0.1142
ATVLMGLGK [reference compound],ELISA450nm,[1]; [13],1.911
same,EZ50kD (pH 6.2),[2]; [14],1.039
QLMPFGSLLD [CS1021],EASY_mean,[1],0.0006677
same,EZ_mean,[2],-0.06288
LITQLMPFGSL [CS1029],EASY_mean,[1],-0.02804
same,EZ_mean,[2],-0.07478
SLLDYVREHKD [CS1038],EASY_mean,[1],-0.01097
same,EZ_mean,[2],-0.03388
IKTSPKANK [EX1007],EASY_mean,"[1]; […], mean, STDEV",-0.0128
same,EZ_mean,[2]; [12],-0.05095
VAIKTSPKAN [EX1011],EASY_mean,"[1]; ELISA signal, mean, […]",-0.005285
same,EZ_mean,[2]; [12],-0.03763
STVQLIMQLM [TM1021],EASY_mean,"[1]; […], mean, STDEV",-0.01593
same,EZ_mean,[2]; [5],-0.03318
same,Norm_mean,[2]; [5],-0.01917
SSCSSCPLSK [reference compound],ELISA450nm,[1]; [13],1.272
same,EZ50kD (pH 6.2),[2]; [14],0.6649
same,EZ50kD (pH 6.2),[2]; pH 6.2,0.9576
same,EZ50kD (pH 8),[2]; pH 8,0.8409
PVAIKTSPKAN [EX1017],EASY_mean,"[1]; ELISA signal, mean, […]",-0.01335
same,EZ_mean,[2]; [3],-0.1176
KIPVAIKTSPKA [EX1023],EASY_mean,[1],-0.01234
same,EZ_mean,[2]; [11],-0.1135
KTSPKANKEILD [EX1029],EASY_mean,[1],-0.02661
same,EZ_mean,[2]; [11],-0.1385
FGSLLDYVRE [CS1025],EASY_mean,[1],0.005114
same,EZ_mean,[2],-0.05956
GRAKLLGAEEKE [LR1049],EASY_mean,[1],-0.01715
same,EZ_mean,[2],-0.05058
TSPKANKEILD [EX1022],EASY_mean,"[1]; ELISA signal, mean, […]",-0.01584
same,EZ_mean,[2]; [3],-0.1213
PVAIKTSPKANK [EX1025],EASY_mean,[1],-0.00741
same,EZ_mean,[2]; [11],-0.1057
DFGRAKLLG [LR1014],EASY_mean,"[1]; ELISA signal, mean, […]",-0.02793
same,EZ_mean,[2],-0.05414

# From article PMC7483518, “Destabilizing single chain major histocompatibility complex class I protein for repurposed enterokinase proteolysis” (Scientific Reports, 2020)
